Test results reported in patent publication US4206221A, “Cephalomannine and its use in treating leukemic tumors” (priority 1979, dated 1980).
≈ marks a conversion by molar mass, not a printed value. Like-named read-outs stand apart in the source and are kept apart here.

Experiments:
KB cell culture = experiment: cells; format: cell-based; settings: for IC50: Homo sapiens, KB, 72 h, read-out: ED 50 (dose that inhibits growth to 50% of control growth); for activity in KB cell culture (in words): assay of extract and of fractions during isolation
Procedure: The chemotherapeutic activities of the fractions obtained in the isolation procedure may be determined by a KB Cell Culture Screen in accordance with the National Cancer Institute Protocol 1.600 [Geran et al., Cancer Chemother. Rep., Part 3, 3: 17 (1972)]. […] Such a dose is referred to as ED 50 and activity is indicated for ED 50 levels of ≤30 μg./ml.

leukemia [1] = experiment: activity against leukemia in animals (general statement); settings: in vivo
[2] = test system: lymphocytic leukemia cells of the strain P388; experiment: P388 lymphocytic leukemia implanted in mice, survival time (T/C), National Cancer Institute Protocol 1.200; format: in vivo; settings: intraperitoneal, once a day for 9 days, female DBA/2 mice, 125% or above considered active
From the text: The effectiveness of alkaloid compounds against lymphocytic leukemia cells of the strain P388 implanted in mice is another method of determining activity. These assays are made according to the National Cancer Institute Protocol 1.200 described in Geran et al. referred to above. The usefulness of cephalomannine as compared to taxol was ascertained by assaying Fractions K263 and K264 from Example 1 by this procedure. Starting 24 hr. after the tumor implantation, previously determined dosages of each compound were injected intraperitoneally once a day for 9 days. Survival time of treated leukemic mice is compared to that of untreated leukemic mice (T/C×100). A T/C value of 100% indicated no activity. A T/C value greater than 100% means that the treated mice are surviving longer than the control mice. A compound giving a T/C value greater than 125% is indicative of activity as defined by the NCI Protocols, above.
^1 All mice were female, DBA/2.
^2 The injection vehicle was saline + Tween 80 + alcohol.
^3 One intraperitoneal injection per day for 9 days.
^4 T/C = mean survival time of test animals/mean survival time of […]

leukemia [3] = settings: background, literature; cited from earlier work

Row | SMILES | IC50 (KB cell culture) [ng/mL] | activity in KB cell culture (in words) (KB cell culture) | activity against leukemia in animals (in words) (leukemia [1]) | T/C (mean survival time of test animals/mean survival time of control animals) ([2]; 1.00 mg./kg./inj.) [%] | T/C (mean survival time of test animals/mean survival time of control animals) ([2]; 1.40 mg./kg./inj.) [%] | T/C (mean survival time of test animals/mean survival time of control animals) ([2]; 2.20 mg./kg./inj.) [%] | T/C (mean survival time of test animals/mean survival time of control animals) ([2]; 3.30 mg./kg./inj.) [%] | IC50 (KB cell culture; 3 days after drug addition, active if ED 50 ≤30 μg./ml.) [ng/mL] | antileukemic / antitumor / chemotherapeutic activity (in words) (leukemia [3])
1 | CC=C(C)C(=O)NC(c1ccccc1)C(O)C(=O)O[C@H]1C[C@@]2(O)[C@@H](OC(=O)c3ccccc3)[C@@H]3[C@]4(OC(C)=O)CO[C@@H]4C[C@H](O)[C@@]3(C)C(=O)[C@H](OC(C)=O)C(=C1C)C2(C)C (single isomer, unassigned) [cephalomannine] | 3.8 (≈ 4.57 nM) | showed activity | demonstrates activity against leukemia in animals | 152 | 159 | 162 | 180 | – | –
2 | CC(=O)O[C@H]1C(=O)[C@@]2(C)[C@H]([C@H](OC(=O)c3ccccc3)[C@]3(O)C[C@H](OC(=O)C(O)C(NC(=O)c4ccccc4)c4ccccc4)C(C)=C1C3(C)C)[C@]1(OC(C)=O)CO[C@@H]1C[C@@H]2O (single isomer, unassigned) [taxol, reference compound] | – | showed activity | – | – | 148 | 152 | – | 1.2 (≈ 1.41 nM) | antileukemic and antitumor agent
